Columns and labels:
CLK1 = target: T1, CLK1 (Homo sapiens, UniProt P49759); experiment: Kinase inhibition assay (Eurofins DiscoverX KinaseProfiler / KdElect), CLK1; type: biochemical
T1 construct: purchased Eurofins DiscoverX (contract service)
Method: (§1) The activity of Compounds 1, 3, 4, 6, 7, 8, 9, 10 and 13 in inhibiting CLK1, CLK4, PLK4, and FLT3 kinases was determined. Stock solutions of the compounds being evaluated were prepared. The IC50 values were determined by the Eurofins DiscoverX services using either the KinaseProfiler or the KdElect kinase activity detection assays.

CLK4 = target: T2, CLK4 (Homo sapiens, UniProt Q9HAZ1); experiment: Kinase inhibition assay (Eurofins DiscoverX KinaseProfiler / KdElect), CLK4; type: biochemical
T2 construct: purchased Eurofins DiscoverX (contract service)
Method: as §1

PLK4 = target: T3, PLK4 (Homo sapiens, UniProt O00444); experiment: Kinase inhibition assay (Eurofins DiscoverX KinaseProfiler / KdElect), PLK4; type: biochemical
T3 construct: purchased Eurofins DiscoverX (contract service)
T3 sequence (O00444 1-970): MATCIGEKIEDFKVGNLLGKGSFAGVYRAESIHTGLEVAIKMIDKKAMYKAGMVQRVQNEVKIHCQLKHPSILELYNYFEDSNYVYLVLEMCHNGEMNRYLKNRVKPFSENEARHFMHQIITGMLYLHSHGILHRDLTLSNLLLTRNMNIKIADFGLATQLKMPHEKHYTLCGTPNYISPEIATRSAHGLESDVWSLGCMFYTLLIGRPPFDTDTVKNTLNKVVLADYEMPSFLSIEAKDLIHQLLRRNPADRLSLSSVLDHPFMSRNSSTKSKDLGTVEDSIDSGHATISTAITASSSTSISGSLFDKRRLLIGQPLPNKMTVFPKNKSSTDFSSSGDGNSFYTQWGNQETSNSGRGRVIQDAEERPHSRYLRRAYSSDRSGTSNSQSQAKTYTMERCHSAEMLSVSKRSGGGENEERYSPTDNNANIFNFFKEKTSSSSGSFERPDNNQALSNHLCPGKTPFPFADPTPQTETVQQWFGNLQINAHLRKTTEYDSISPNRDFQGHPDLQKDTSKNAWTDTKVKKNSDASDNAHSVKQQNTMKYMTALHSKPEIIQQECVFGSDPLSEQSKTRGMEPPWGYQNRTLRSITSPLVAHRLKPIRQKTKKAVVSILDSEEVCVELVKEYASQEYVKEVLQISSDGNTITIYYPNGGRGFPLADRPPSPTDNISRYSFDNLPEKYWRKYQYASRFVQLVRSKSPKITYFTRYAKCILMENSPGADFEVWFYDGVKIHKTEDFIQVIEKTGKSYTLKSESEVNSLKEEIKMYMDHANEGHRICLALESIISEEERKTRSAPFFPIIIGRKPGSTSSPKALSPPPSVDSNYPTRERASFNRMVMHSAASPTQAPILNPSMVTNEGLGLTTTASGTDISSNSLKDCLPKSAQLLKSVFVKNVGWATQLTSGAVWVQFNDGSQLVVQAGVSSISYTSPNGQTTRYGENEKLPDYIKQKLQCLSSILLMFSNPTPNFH
Method: as §1

FLT3 = target: T4, FLT3 (Homo sapiens, UniProt P36888); experiment: Kinase assay (Eurofins DiscoverX KinaseProfiler / KdElect), FLT3; type: binding; conditions: read-out: FLT3 (Kd50 nM)
T4 construct: purchased Eurofins DiscoverX (contract service)
T4 sequence (P36888 27-993): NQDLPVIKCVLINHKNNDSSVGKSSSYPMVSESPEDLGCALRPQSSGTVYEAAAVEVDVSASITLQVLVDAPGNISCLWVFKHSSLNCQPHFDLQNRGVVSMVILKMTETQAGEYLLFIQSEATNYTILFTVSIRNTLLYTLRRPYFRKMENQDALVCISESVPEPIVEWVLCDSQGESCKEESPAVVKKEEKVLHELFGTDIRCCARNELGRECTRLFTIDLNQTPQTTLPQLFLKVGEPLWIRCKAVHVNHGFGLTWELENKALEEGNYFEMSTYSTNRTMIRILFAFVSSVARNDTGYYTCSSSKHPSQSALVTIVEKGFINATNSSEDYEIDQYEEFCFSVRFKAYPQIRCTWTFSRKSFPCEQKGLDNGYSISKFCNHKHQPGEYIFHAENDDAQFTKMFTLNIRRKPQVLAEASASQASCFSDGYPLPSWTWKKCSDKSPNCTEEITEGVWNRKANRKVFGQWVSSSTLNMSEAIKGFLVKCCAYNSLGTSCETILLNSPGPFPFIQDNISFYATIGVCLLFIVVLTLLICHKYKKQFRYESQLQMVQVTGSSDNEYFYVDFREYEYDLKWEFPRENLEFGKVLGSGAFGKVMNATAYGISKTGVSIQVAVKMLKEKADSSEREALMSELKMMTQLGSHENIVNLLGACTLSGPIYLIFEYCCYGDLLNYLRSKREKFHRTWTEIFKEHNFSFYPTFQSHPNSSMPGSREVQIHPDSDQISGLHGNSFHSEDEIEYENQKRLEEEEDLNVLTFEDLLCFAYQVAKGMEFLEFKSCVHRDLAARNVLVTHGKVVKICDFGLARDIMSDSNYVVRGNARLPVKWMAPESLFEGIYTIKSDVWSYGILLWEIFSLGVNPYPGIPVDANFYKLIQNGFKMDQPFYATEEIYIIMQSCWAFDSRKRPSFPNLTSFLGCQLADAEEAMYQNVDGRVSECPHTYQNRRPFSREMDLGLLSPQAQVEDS
Method: Stock solutions of the compounds being evaluated were prepared. The IC50 values were determined by the Eurofins DiscoverX services using either the KinaseProfiler or the KdElect kinase activity detection assays.

HCT-116 = experiment: Cancer cytotoxicity assay (Real-Time-Glo cell viability), HCT-116; type: cell-based; conditions: Homo sapiens, colorectal cancer cell line, 72 hr
Method: (§2) The cytotoxicity of Compounds 1, 3, 4, 6, 7, 8, 9, 10, 12 and 13 against cancer cell lines was determined. To determine the optimal plating density for cell viability assays, for each cell line, cells were counted and diluted to final densities of 2.5, 5, 10 and 20 thousand per 100 μL of their respective growth media per well in 96 well plates. The Promega Real-Time-Glo cell viability kit was used to determine the optimal concentration for cell plating so that each cell line would be within the linear part of its growth curve after 72 hrs in culture. For the determination of test compound IC50s, different cancer cell lines were plated in 96 well plates in the pre-determined optimal density for each cell line. Test compounds were then added at different concentrations for the creation of six-point curve and cell density was determined using the Promega Real-Time-Glo cell viability kit after 24, 48, and 72 hrs in culture.

HT-29 = experiment: Cancer cytotoxicity assay (Real-Time-Glo cell viability), HT-29; type: cell-based; conditions: Homo sapiens, colorectal cancer cell line, 72 hr
Method: as §2

A-498 = experiment: Cancer cytotoxicity assay (Real-Time-Glo cell viability), A-498; type: cell-based; conditions: Homo sapiens, A498; kidney cancer, 72 hr
Method: as §2

786-O = experiment: Cancer cytotoxicity assay (Real-Time-Glo cell viability), 786-O; type: cell-based; conditions: Homo sapiens, 786-0; kidney cancer, 72 hr
Method: as §2

SKOV-3 = experiment: Cancer cytotoxicity assay (Real-Time-Glo cell viability), SKOV-3; type: cell-based; conditions: Homo sapiens, SK-OV-3; ovarian cancer cell line, 72 hr
Method: as §2

OV-90 = experiment: Cancer cytotoxicity assay (Real-Time-Glo cell viability), OV-90; type: cell-based; conditions: Homo sapiens, ovarian cancer cell line, 72 hr
Method: as §2

Kasumi-1 = experiment: Cancer cytotoxicity assay (Real-Time-Glo cell viability), Kasumi-1; type: cell-based; conditions: Homo sapiens, leukemia cell, 72 hr
Method: as §2

Kasumi-3 = experiment: Cancer cytotoxicity assay (Real-Time-Glo cell viability), Kasumi-3; type: cell-based; conditions: leukemia cell, 72 hr
Method: as §2

MV4-11 = experiment: Cancer cytotoxicity assay (Real-Time-Glo cell viability), MV4-11; type: cell-based; conditions: Homo sapiens, leukemia cell, 72 hr
Method: as §2

T1 sequence (P49759 whole entry): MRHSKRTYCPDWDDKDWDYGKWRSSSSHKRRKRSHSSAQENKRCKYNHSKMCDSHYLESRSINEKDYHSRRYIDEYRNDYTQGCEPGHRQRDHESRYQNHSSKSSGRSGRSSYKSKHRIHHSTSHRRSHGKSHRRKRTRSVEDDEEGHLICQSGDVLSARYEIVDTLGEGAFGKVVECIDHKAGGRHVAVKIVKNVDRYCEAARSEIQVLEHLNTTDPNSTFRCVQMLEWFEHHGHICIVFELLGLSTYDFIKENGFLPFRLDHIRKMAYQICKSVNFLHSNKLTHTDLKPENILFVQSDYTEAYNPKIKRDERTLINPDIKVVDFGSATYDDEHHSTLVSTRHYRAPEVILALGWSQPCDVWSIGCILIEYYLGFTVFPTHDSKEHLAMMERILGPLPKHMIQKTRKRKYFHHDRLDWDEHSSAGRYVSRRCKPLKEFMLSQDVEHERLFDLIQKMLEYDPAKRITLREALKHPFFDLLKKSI
T2 sequence (Q9HAZ1 whole entry): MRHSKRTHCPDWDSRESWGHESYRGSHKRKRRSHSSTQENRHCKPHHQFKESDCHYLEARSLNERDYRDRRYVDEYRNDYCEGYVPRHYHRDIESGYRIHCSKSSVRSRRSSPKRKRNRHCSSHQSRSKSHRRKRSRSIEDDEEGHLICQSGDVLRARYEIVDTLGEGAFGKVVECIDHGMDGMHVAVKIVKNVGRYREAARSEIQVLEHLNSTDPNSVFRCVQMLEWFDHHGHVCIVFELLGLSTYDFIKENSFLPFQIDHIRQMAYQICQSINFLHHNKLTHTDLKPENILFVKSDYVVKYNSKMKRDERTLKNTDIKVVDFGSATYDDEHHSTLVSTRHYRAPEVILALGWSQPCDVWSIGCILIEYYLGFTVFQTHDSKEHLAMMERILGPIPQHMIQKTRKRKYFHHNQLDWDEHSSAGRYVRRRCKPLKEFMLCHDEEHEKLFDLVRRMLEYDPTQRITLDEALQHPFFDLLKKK

| Compound | IC50 (CLK1) [nM] | kinase selectivity (CLK1; among CLK1, CLK4, PLK4, FLT3) | IC50 (CLK4) [nM] | IC50 (PLK4) [nM] | Kd (FLT3) [µM] | IC50 (HCT-116) [nM] | IC50 (HT-29) [nM] | IC50 (A-498) [nM] | IC50 (786-O) [nM] | IC50 (SKOV-3) [nM] | IC50 (OV-90) [nM] | IC50 (Kasumi-1) [nM] | IC50 (Kasumi-3) [nM] | IC50 (MV4-11) [nM] |
| --- | --- | --- | --- | --- | --- | --- | --- | --- | --- | --- | --- | --- | --- | --- |
| COc1cc2c(Nc3cc(C)[nH]n3)nc(N3CCCC3)nc2cc1OCCCN1CCCC1 [Compound 1, 6-Methoxy-N-(5-methyl-1H-pyrazol-3-yl)-2-(pyrrolidin-1-yl)-7-(3-(pyrrolidin-1-yl)propoxy)quinazolin-4-amine] | < 1000 | selective CLK1/4 inhibitor | 5000 to 10000 | > 10000 | > 10 | 1000 to 5000 | 5000 to 10000 | 1000 to 5000 | 5000 to 10000 | 1000 to 5000 | 1000 to 5000 | 1000 to 5000 | 5000 to 10000 | < 1000 |
| COc1cc2c(Nc3cc(C)[nH]n3)nc(N3CCC(F)(F)CC3)nc2cc1OCCCN1CCCC1 [Compound 3, 2-(4,4-difluoropiperidin-1-yl)-6-methoxy-N-(5-methyl-1H-pyrazol-3-yl)-7-(3-(pyrrolidin-1-yl)propoxy)quinazolin-4-amine] | < 1000 |  | < 1000 | < 1000 | 1 to 5 | 1000 to 5000 | 5000 to 10000 | 5000 to 10000 | 5000 to 10000 | 1000 to 5000 | 1000 to 5000 | > 10000 | 5000 to 10000 | 1000 to 5000 |
| COc1cc2c(Nc3cc(C)[nH]n3)nc(N3CCC3)nc2cc1OCCCN1CCCC1 [Compound 4, 2-(Azetidin-1-yl)-6-methoxy-N-(5-methyl-1H-pyrazol-3-yl)-7-(3-(pyrrolidin-1-yl)propoxy)quinazolin-4-amine] | 1000 to 5000 |  | 5000 to 10000 | > 10000 | 5 to 10 | 1000 to 5000 | > 10000 | > 10000 | > 10000 | > 10000 | > 10000 | > 10000 | > 10000 | 5000 to 10000 |
| COc1cc2c(Nc3cc(C4CC4)[nH]n3)nc(N3CCC(F)(F)CC3)nc2cc1OCCCN1CCCC1 [Compound 6, N-(5-cyclopropyl-1H-pyrazol-3-yl)-2-(4,4-difluoropiperidin-1-yl)-6-methoxy-7-(3-(pyrrolidin-1-yl)propoxy)quinazolin-4-amine] | < 1000 |  | < 1000 | < 1000 |  | 1000 to 5000 | 1000 to 5000 | 1000 to 5000 | 1000 to 5000 | 1000 to 5000 | 1000 to 5000 | 1000 to 5000 | 1000 to 5000 | < 1000 |
| COc1cc2c(Nc3cc(C(C)(C)C)[nH]n3)nc(N3CCC(F)(F)CC3)nc2cc1OCCCN1CCCC1 [Compound 7, N-(5-(tert-butyl)-1H-pyrazol-3-yl)-2-(4,4-difluoropiperidin-1-yl)-6-methoxy-7-(3-(pyrrolidin-1-yl)propoxy)quinazolin-4-amine] | < 1000 |  | < 1000 | > 10000 | > 10 | 1000 to 5000 | 1000 to 5000 | 1000 to 5000 | 1000 to 5000 | 1000 to 5000 | 1000 to 5000 | 1000 to 5000 | 1000 to 5000 | 1000 to 5000 |
| COc1cc2c(Nc3cc(C4CCC4)[nH]n3)nc(N3CCC(F)(F)CC3)nc2cc1OCCCN1CCCC1 [Compound 10, N-(5-cyclobutyl-1H-pyrazol-3-yl)-2-(4,4-difluoropiperidin-1-yl)-6-methoxy-7-(3-(pyrrolidin-1-yl)propoxy)quinazolin-4-amine] | < 1000 |  | < 1000 | 1000 to 5000 |  | 1000 to 5000 | 1000 to 5000 | 1000 to 5000 | 1000 to 5000 | 1000 to 5000 | 1000 to 5000 | < 1000 | < 1000 | < 1000 |
| COc1cc2c(Nc3nnc(C)s3)nc(N3CCC(F)(F)CC3)nc2cc1OCCCN1CCCC1 [Compound 12, N-(2-(4,4-difluoropiperidin-1-yl)-6-methoxy-7-(3-(pyrrolidin-1-yl)propoxy)quinazolin-4-yl)-5-methyl-1,3,4-thiadiazol-2-amine] |  |  |  |  |  | 1000 to 5000 | 1000 to 5000 | 1000 to 5000 | 5000 to 10000 | 1000 to 5000 | 1000 to 5000 | 1000 to 5000 | 1000 to 5000 | 1000 to 5000 |

— US20240199597A1, “SMALL MOLECULES FOR THE TREATMENT OF KINASE-RELATED DISEASES” (Athos Therapeutics, Inc., priority 2021, published 2024)
